Reference: paper PMC12591191, “SIRT6 Lysine‐Demyristoylates ATF2 to Ameliorate Vascular Injury via PRKCD/VE‐Cadherin Pathway Regulating Vascular Endothelial Barrier” (Advanced Science, 2025)

What was measured:
293T cells = assay: Global myristoylation level, western blot; type: cell-based
Experimental: (§1) Protein samples were separated by SDS/PAGE and transferred to the PVDF membrane. The membrane was blocked with 5% BSA in TBST (25 mM Tris, pH 7.4, 150 mM NaCl, 0.1% Tween‐20), incubated with primary antibodies and secondary antibodies in TBST, and then treated with ECL Plus western blotting detection reagents (Bio‐rad). The chemiluminescence signal was analyzed by ChemiDoc imaging system (Bio‐rad).
(§2) HMEC‐1, obtained from Shanghai Zhong Qiao Xin Zhou Biotechnology, was cultured in MCDB131 medium containing 10% foetal bovine serum (FBS) and 1% antibiotics (penicillin and streptomycin) in 5% CO2 incubator at 37 °C. HUVEC, obtained from Shanghai Zhong Qiao Xin Zhou Biotechnology, were cultured in ECM medium containing 5% FBS, 1% antibiotics (penicillin and streptomycin) and 1% endothelial cell growth supplement (ECGS) in 5% CO2 incubator at 37 °C. HEK 293T were obtained from ATCC, and cultured in Dulbecco's modified Eagle's medium (DM EM) containing 10% FBS and 1% antibiotics (penicillin and streptomycin) in 5% CO2 incubator at 37 °C. The SIRT6 KO 293T cells were constructed by Hanbio Biotechnology, the SIRT6 gRNA was 5′‐[…]‐3′. SIRT6 overexpression and knockdown recombinant lentivirus were constructed by Hanbio Biotechnology, the vector pGLV3‐harboring SIRT6 and SIRT6 shRNA (5′‐[…]‐3′) were used for lentivirus packaging. […]

ATF2 in 293T = assay: ATF2 protein level, western blot; type: cell-based; details: 0–20 µg mL^−1, 12 h, n = 3
Experimental: as §1, §2

[1] = tested on: FLAG-tagged ATF2 in 293T cells; assay: ATF2 myristoylation, IP and Click-iT; type: cell-based; details: 10 µg mL^−1, 12 h, n = 3
Experimental: (§3) HMEC‐1, obtained from Shanghai Zhong Qiao Xin Zhou Biotechnology, was cultured in MCDB131 medium containing 10% foetal bovine serum (FBS) and 1% antibiotics (penicillin and streptomycin) in 5% CO2 incubator at 37 °C. HUVEC, obtained from Shanghai Zhong Qiao Xin Zhou Biotechnology, were cultured in ECM medium containing 5% FBS, 1% antibiotics (penicillin and streptomycin) and 1% endothelial cell growth supplement (ECGS) in 5% CO2 incubator at 37 °C. HEK 293T were obtained from ATCC, and cultured in Dulbecco's modified Eagle's medium (DM EM) containing 10% FBS and 1% antibiotics (penicillin and streptomycin) in 5% CO2 incubator at 37 °C. The SIRT6 KO 293T cells were constructed by Hanbio Biotechnology, the SIRT6 gRNA was 5′‐[…]‐3′. SIRT6 overexpression and knockdown recombinant lentivirus were constructed by Hanbio Biotechnology, the vector pGLV3‐harboring SIRT6 and SIRT6 shRNA (5′‐[…]‐3′) were used for lentivirus packaging. The plasmid ATF2WT, ATF2K296R, GFP‐ATF2WT and GFP‐ATF2K296R were synthesized by Hanbio Biotechnology, and the plasmid pUC57‐SIRT6 and all primers were synthesized by Tsingke Biotechnology.
Click chemistry was used for the detection of K296 myristoylation of exogenous ATF2. The click chemistry‐based labeling and detection technology was conducted according to the manufacturer's instructions (Click‐iT Protein Reaction Buffer Kit Invitrogen C10276).

FLAG‐ATF2 in 293T cells = assay: Nuclear localization of FLAG-ATF2, 293T; type: cell-based; details: 10 µg mL^−1, 12 h, n = 3
Experimental: as §1, §2

[2] = tested on: ATF2 in SIRT6 KD HMEC cells; assay: Nuclear localization of ATF2, HMEC; type: cell-based; details: 10 µg mL^−1, 12 h, n = 3; not the K296R mutant
Experimental: as §1, §2

[3] = tested on: endogenous ATF2 in HUVECs; assay: Nuclear localization of endogenous ATF2, HUVEC; type: cell-based; details: 10 µg mL^−1, 12 h, n = 3
Experimental: as §1, §2

[4] = tested on: VE‐Cadherin and PRKCD in HMEC-1; assay: VE-Cadherin and PRKCD expression, western blot, HMEC-1; type: cell-based; details: 10 µg mL^−1, 12 h, n = 3
Experimental: as §1, §2

HMEC-1 [5] = assay: Transendothelial permeability (transwell, FITC-dextran); type: cell-based; details: 10 µg mL^−1, 12 h; FITC‐dextran 6µg mL^−1, 2 h or 6h, n = 3
Experimental: as §2
HMEC‐1 transfected with relative plasmids were pretreated with ALK14(10 µg mL^−1) for 12 h and were grown on 0.4 µm‐pore transwell filters (Millipore, Bedford, MA) until confluent. […] Fluorescence of media in the lower chamber was detected at 485/530 nm by afluorescence microplate reader (FL × 800, BIO‐TEK Instruments).

HMEC-1 [6] = assay: Intercellular gap formation, VE-Cadherin immunofluorescence; type: cell-based; details: 10 µg mL^−1, 12 h, n = 8–10; prevented by K296R
Experimental: as §3

HMEC-1 [7] = assay: Endothelial-stromal differentiation (CD31 and αSMA western blot); type: cell-based; details: 10 ug/ml, 12h, n=3
Experimental: as §1, §2

[8] = tested on: ATF2 localization and PRKCD/VE‐cadherin axis in HUVECs; assay: ALK14 versus myristic acid, ATF2 localization and PRKCD/VE-cadherin axis; type: cell-based; details: each 10 μg/ml, 12 hours
Experimental: as §1, §2

SIRT6 = SIRT6 activator, ref [57]; cited from earlier work
Source text: Table 1 The activators of SIRT6 were represented with structure, EC50, category, company, indications, and reference. | column: EC50

With `C#CCCCCCCCCCCCC(=O)O` [ALK14, Alkynyl myristic acid] the “global myristoylation level, dose dependence” value (293T cells; 0–10 µg mL^−1, 12 hours) was “dose‐dependent increases”, the “global myristoylation level, ALK14-treated versus untreated” value (293T cells; SIRT6 WT and KO cells, 10 μg/ml) was “significantly elevated global myristoylation levels” and the ATF2 protein level (ATF2 in 293T) was “remained stable”. The ATF2 myristoylation level [1] was “significant myristoylation enhancement”, the “nuclear FLAG‐ATF2 accumulation” value (FLAG‐ATF2 in 293T cells) was “significantly reduced nuclear FLAG‐ATF2 accumulation” and the “nuclear accumulation of wild‐type ATF2” value [2] was “reduced nuclear accumulation of wild‐type ATF2”. For the same molecule, the ATF2 translocation [3] was “translocation of endogenous ATF2 from nucleus to cytoplasm”, the PRKCD expression [4] was “PRKCD reduction” and the “VE‐cadherin expression” value [4] was “significantly reduced VE‐cadherin expression”. The “endothelial permeability, ATF2 K296R cells” value (HMEC-1 [5]) was “absent in K296R mutants”, the “endothelial permeability, ATF2 WT cells” value (HMEC-1 [5]) was “ALK14‐induced permeability in ATF2 WT cells” and the “intercellular gap formation (5 µm/10 µm), ATF2 WT” value (HMEC-1 [6]) was “ALK14‐induced gap formation”. The “effect on endothelial‐stromal differentiation” value (HMEC-1 [7]) was “Neither ALK14 nor ATF2 modification influenced endothelial‐stromal differentiation” and the “impact on ATF2 localization and PRKCD/VE‐cadherin axis, myristic acid versus ALK14” value [8] was “equivalent impacts”.

In the case of `COC(=O)c1cc(NS(=O)(=O)c2cc(Cl)cc(Cl)c2)ccc1S(=O)(=O)Nc1cc(Br)c(F)cc1C` [MDL‐800], the EC50 (SIRT6) is given as […].
